Measurements as given in US20040116480A1, “Oxime ether compound and agricultural or horticultural bactericide” (priority 2001, published 2004).

Test system: kidney bean gray mold fungus (Botrytis cinerea)
Test: Test on kidney bean gray mold control, dipped flowers on detached leaves
Format: in vivo
Conditions: 168 h, 50 ppm active ingredient, kidney bean flowers (Nagauzura) dipped, then spore solution sprayed, 20° C., 7 days, lesion diameter, read-out: control efficacy
Description: The following test examples show the efficacy of the compounds of the present invention as active ingredients of various agents for controlling plant diseases. The control efficacy was determined by visual observation of the infested states of test plants, that is, degrees of legions and growth of colonies on leaves and stalks, when they were examined, in comparison with those of control plants.
Test on Kidney Bean Gray Mold Control
Flowers of kidney bean (variety: Nagauzura) grown in a flat vessel for culturing seedlings were cut, and dipped into a solution of an emulsifiable concentrate prepared for a compound of the present invention, diluted to a concentration of 50 ppm based on the active ingredient. After the dipping, the flowers were dried at room temperature. Then a spore solution of kidney bean gray mold fungus (Botrytis cinerea) was sprayed onto the flowers. The treated flowers were placed on leaves detached from healthy kidney bean plants, placed in a temperature-controlled room at 20° C. with high humidity and repeated lighting of 12-hour intervals, and incubated for 7 days. Diameters of the legions on the leaves were measured and compared with those of the control healthy leaves to determine the control efficacy.

SMILES | pest or weed control at 50 ppm [%]
COc1nccc(C)c1CO/N=C/c1cc(C)cc(C)n1 [II-3, 4,6-dimethyl-2-pyridinecarboxyaldehyde O-[(2-methoxy-4-methyl-3-pyridinyl)methyl]oxime] | ≥ 75
COc1ccnc(OC)c1CO/N=C(\C)c1cc(C)cc(C)n1 [II-14, 1-(4,6-dimethyl-2-pyridinyl)ethanone O-[(2,4-dimethoxy-3-pyridinyl)methyl]oxime] | ≥ 75
COc1ncnc(OC)c1CO/N=C(\C)c1cc(C)cc(C)n1 [II-17, 1-(4,6-dimethyl-2-pyridinyl)ethanone O-[(4,6-dimethoxy-5-pyrimidinyl)methyl]oxime] | ≥ 75
COc1ncnc(OC)c1CO/N=C/c1cc(Cl)cc(C)n1 [II-20, 4-chloro-6-methyl-2-pyridinecarboxyaldehyde O-[(4,6-dimethoxy-5-pyrimidinyl)methyl]oxime] | ≥ 75
COc1ccnc(OC)c1CO/N=C/c1cc(C#N)cc(C)n1 [II-27, 4-cyano-6-methyl-2-pyridinecarboxyaldehyde O-[(2-,4-dimethoxy-3-pyridinyl)methyl]oxime] | ≥ 75
COc1nccc(C)c1CO/N=C/c1cc(C#N)cc(C)n1 [II-28, 4-cyano-6-methyl-2-pyridinecarboxyaldehyde O-[(2-methoxy-4-methyl-3-pyridinyl)methyl]oxime] | ≥ 75
COc1ncnc(OC)c1CO/N=C/c1cc(C#N)cc(C)n1 [II-29, 4-cyano-6-methyl-2-pyridinecarboxyaldehyde O-[(4,6-dimethoxy-5-pyrimidinyl)methyl]oxime] | ≥ 75
COc1ncnc(OC)c1CO/N=C/c1cc(C(F)(F)F)cc(C)n1 [II-36, 6-methyl-4-trifluoromethyl-2-pyridinecarboxyaldehyde O-[(4,6-dimethoxy-5-pyrimidinyl)methyl]oxime] | ≥ 75
